Values quoted from earlier work as cited in patent US20080124273A1, “Novel cationic metal complex radiopharmaceuticals” (priority 2004, published 2008).

How the values were obtained:
[1] = background statement
[2] = background statement; remark: listed apart in the source

first-pass extraction [1]	uptake in liver and lungs [1]	T/B ratios [1]	heart uptake [1]	lipophilicity [2]	Structure (SMILES)
low	high				[C-]#[N+]CC(C)(C)OC.[C-]#[N+]CC(C)(C)OC.[C-]#[N+]CC(C)(C)OC.[C-]#[N+]CC(C)(C)OC.[C-]#[N+]CC(C)(C)OC.[C-]#[N+]CC(C)(C)OC.[Tc] [^99mTc-Sestamibi]
		poor	very low	high	CCOCCC[P]1(CCCOCC)CCN(CCOCC)CC[P](CCCOCC)(CCCOCC)[99Tc+]12(#[N])[S]C(N(CCOCC)CCOCC)=[S]2 [^99mTcN-DBODC6, [^99mTc(N)(N(CH2CH2OEt)2(PNP6)]^+]
